In patent publication US10874745B2, “Antimicrobial peptides and methods of treating gram-negative pathogens: polar and non-polar face analogs” (priority 2017, dated 2020):
Values after ≈ are worked out from the molar mass of the structure shown. Values joined by “and” are separate entries in the source; they are usually repeats but may differ in a detail not shown here. Equal entries are not always repeated. Where two headings read alike, the source gives them in different places.

Legend:
[1] = tested on: MSSA; test: Resistance profile of MSSA strains; assay type: cell-based, Staphylococcus aureus; design: key: R denotes resistant; S denotes sensitive
[2] = tested on: MRSA; test: Resistance profile of MRSA strains; assay type: cell-based, Staphylococcus aureus; design: key: R denotes resistant; S denotes sensitive
[3] = Hemolytic activity; assay type: cell-based, human; conditions: 1% human erythrocytes (red blood cells), pH 7.4
Method: Hemoglobin release was determined spectrophotometrically at 570 nm. […] […] […] With the peptides used in this study the inventors used the HC30/MIC ratio value to calculate the therapeutic index.

[4] = tested on: A. baumannii strains resistant to Polymyxin B and Colistin; assay type: cell-based
Excerpt: Gram-Negative Bacterial Strains used in this Study: All the A. baumannii strains used in this study were 1) obtained from the collection of Dr. Anthony A. Campagnari at the University of Buffalo and originally isolated from different patients and organs/tissues (strain 649, blood; strain 689, groin; strain 759, gluteus; strain 884, axilla; strain 985, pleural fluid); 2) were purchased from the American Type Culture Collection (ATCC, Manassas, Va., USA) (strain ATCC 17978, fatal meningitis; and strain ATCC 19606, urine); 3) obtained from MERCK (M89941, M89949, M89951, M89952, M89953, M89955 and M89963). These seven A. baumannii strains were resistant to polymyxin B and polymyxin E (Colistin).
Measurement of Antimicrobial Activity (MIC): The minimal inhibitory concentration (MIC) is defined as the lowest peptide concentration that inhibited bacterial growth. MICs were measured by a standard microtiter dilution method in Mueller Hinton (MH) medium. Briefly, cells were grown overnight at 37° C. in MH broth and were diluted in the same medium. […] The plates were incubated at 37° C. for 24 h, and the MICs were determined.

Row | Compound | Antibiotic Susceptibility ([1]; MSSA strain BL7429 (Blood)) | Antibiotic Susceptibility ([1]; MSSA strain M21913 (Finger)) | Antibiotic Susceptibility ([1]; MSSA strain M22075 (Axilla)) | Antibiotic Susceptibility ([1]; MSSA strain M22097 (Neck)) | Antibiotic Susceptibility ([1]; MSSA strain M22274 (Spine)) | Antibiotic Susceptibility ([1]; MSSA strain M22300 (Finger)) | Antibiotic Susceptibility ([1]; MSSA strain M22312 (Finger)) | Antibiotic Susceptibility ([1]; MSSA strain M22315) | Antibiotic Susceptibility ([2]; MRSA strain M21742 (Nose)) | Antibiotic Susceptibility ([2]; MRSA strain M21756 (Nose)) | Antibiotic Susceptibility ([2]; MRSA strain M22111 (Ear)) | Antibiotic Susceptibility ([2]; MRSA strain M22130) | Antibiotic Susceptibility ([2]; MRSA strain M22224 (Leg)) | Antibiotic Susceptibility ([2]; MRSA strain M22354) | Antibiotic Susceptibility ([2]; MRSA strain M22360 (Labia)) | Antibiotic Susceptibility ([2]; MRSA strain M22424 (Arm)) | other results
1 | Cc1onc(-c2ccccc2)c1C(=O)N[C@@H]1C(=O)N2[C@@H]1SC(C)(C)[C@@H]2C(=O)O [Oxacillin] | S | S | S | S | S | S | S | S | R | R | R | R | R | R | R | R^c | Antibiotic Susceptibility ([1]; MSSA strain M22287 (Hip)): S
2 | CC(=O)N[C@H](CCCCN)C(=O)N[C@H](CC(C)C)C(=O)N[C@H](CCCCN)C(=O)N[C@H](CO)C(=O)N[C@H](CC(C)C)C(=O)N[C@H](CC(C)C)C(=O)N[C@H](CCCCN)C(=O)N[C@@H](C(=O)N[C@H](CC(C)C)C(=O)N[C@H](CO)C(=O)N[C@H](CCCCN)C(=O)N[C@H](C)C(=O)N[C@H](CCCCN)C(=O)N[C@H](C)C(=O)N[C@H](C)C(=O)N[C@H](CCCCN)C(=O)N[C@H](CC(C)C)C(=O)N[C@H](CCCCN)C(=O)N[C@@H](C(=O)N[C@H](CC(C)C)C(=O)N[C@H](CC(C)C)C(=O)N[C@H](CCCCN)C(=O)N[C@H](C)C(=O)N[C@H](CC(C)C)C(=O)N[C@H](CO)C(=O)N[C@H](CO)C(N)=O)[C@H](C)O)[C@H](C)O [Peptide D101, Ac-KL(Lys)SLL(Lys)TLS(Lys)AKAAKL(Lys)TLL(Lys)ALSS-amide] |  |  |  |  |  |  |  |  |  |  |  |  |  |  |  |  | HC50 at 18 h ([3]; 50% hemolysis of human red blood cells after 18 hours at 37° C., read-out: HC50): 279 µg/mL and > 104 µM
3 | CC[C@H]1OC(=O)[C@H](C)[C@@H](O[C@H]2C[C@@](C)(OC)[C@@H](O)[C@H](C)O2)[C@H](C)[C@@H](O[C@@H]2O[C@H](C)C[C@H](N(C)C)[C@H]2O)[C@](C)(O)C[C@@H](C)C(=O)[C@H](C)[C@@H](O)[C@]1(C)O [Erythromycin] | S | S | S | S | S | S | S | S | R | S | R | R | R | R | R | R | 
4 | Colistin [reference compound] |  |  |  |  |  |  |  |  |  |  |  |  |  |  |  |  | MICGM ([4]; geometric mean, 7 A. baumannii strains resistant to polymyxin B and colistin): >28 µM; MIC ([4]; strain M89941): >28 µM; MIC ([4]; strain M89949): >28 µM; MIC ([4]; strain M89951): >28 µM; MIC ([4]; strain M89952): >28 µM; MIC ([4]; strain M89953): >28 µM; MIC ([4]; strain M89955): >28 µM; MIC ([4]; strain M89963): >28 µM
5 | CC(=O)N[C@H](CCCCN)C(=O)N[C@H](CC(C)C)C(=O)N[C@H](CN)C(=O)N[C@H](CO)C(=O)N[C@H](CC(C)C)C(=O)N[C@H](CC(C)C)C(=O)N[C@H](CN)C(=O)N[C@@H](C(=O)N[C@H](CC(C)C)C(=O)N[C@H](CO)C(=O)N[C@H](CN)C(=O)N[C@H](C)C(=O)N[C@H](CCCCN)C(=O)N[C@H](C)C(=O)N[C@H](C)C(=O)N[C@H](CCCCN)C(=O)N[C@H](CC(C)C)C(=O)N[C@H](CN)C(=O)N[C@@H](C(=O)N[C@H](CC(C)C)C(=O)N[C@H](CC(C)C)C(=O)N[C@H](CN)C(=O)N[C@H](C)C(=O)N[C@H](CC(C)C)C(=O)N[C@H](CO)C(=O)N[C@H](CN)C(N)=O)[C@H](C)O)[C@H](C)O [Peptide D105, Ac-KL(Dpr)SLL(Dpr)TLS(Dpr)AKAAKL(Dpr)TLL(Dpr)ALS(Dpr)-amide] |  |  |  |  |  |  |  |  |  |  |  |  |  |  |  |  | HC50 at 18 h ([3]; human): > 3000 µg/mL and > 1.15 mM; MIC ([4]; strain MB9941 (Table 9C)): 0.8 µM (≈ 2.09 µg/mL); MIC ([4]; strain MB9949 (Table 9C)): 0.8 µM (≈ 2.09 µg/mL); MIC ([4]; strain MB9951 (Table 9C)): 3.0 µM (≈ 7.84 µg/mL); MIC ([4]; strain MB9952 (Table 9C)): 0.8 µM (≈ 2.09 µg/mL); MIC ([4]; strain MB9953 (Table 9C)): 3.0 µM (≈ 7.84 µg/mL); MIC ([4]; strain MB9955 (Table 9C)): 0.8 µM (≈ 2.09 µg/mL); MIC ([4]; strain MB9963 (Table 9C)): 1.5 µM (≈ 3.92 µg/mL)
